What was measured:
[1] = Equilibrium solubility test (HPLC); settings: thermodynamic from solid
Procedure: The column used was an Agilent C18 column (5.0 μm, 4.6 × 150 mm). The mobile phase and diluted solution of the content and dissolution studies analyses were prepared with 0.5% triethylamine buffer (v/v, pH 6.8 adjusted with 85% phosphoric acid) and acetonitrile at a ratio of 7:3 (v/v). The mobile phase was filtered through a 0.45-μm polypropylene membrane filter and degassed via sonication. The wavelength, flow rate, and injection volume were set to 205 nm, 1.5 mL/min, and 20 μL, respectively. In the case of the content and dissolution studies, the mobile phase was constantly flowed for 18 min via an isocratic elution method and analyzed.
The equilibrium solubility test was used to calculate the input amount through the apparent solubility test result, and an excess of the API was placed in each beaker and stirred at 400 rpm. At 0, 12, and 24 h immediately after the overdose, 2 mL samples were taken and filtered through a 0.45-μm regenerated cellulose syringe filter. The supernatant of the filtered solution was taken and diluted with a content analysis diluted solution. […] A calibration test was performed, and the sample was diluted with a diluted solution and prepared at a concentration of 0.05–1 mg/mL.

[2] = Stability study of the APIs in pH buffers (total impurity by HPLC); format: physicochemical
Procedure: The column used was the Gemini C18 column (5.0 μm, 250 mm). Mobile phase A of the impurity study was prepared with KH2PO4 buffer (v/v, solution adjusted to pH 6.0 with 1 M KOH): acetonitrile: methanol = 85: 10: 5 (v/v/v), and mobile phase B was prepared with 90% acetonitrile. The mobile phase was filtered through a 0.4 μm polypropylene membrane filter and degassed via sonication. The diluted solution was prepared with KH2PO4 buffer (v/v, solution adjusted to pH 6.0 with 1 M KOH) and acetonitrile at a ratio of 7:3 (v/v). The wavelength, flow rate, and injection volume were set to 220 nm, 1.0 mL/min, and 20 μL, respectively. The column and sample thermostats were set to 35 °C and 5 °C, respectively. In the case of the impurity study, the analysis was performed by changing the composition of the mobile phase for 80 min using a gradient elution method for 80 min.
[…] […] We performed a calibration test, and the sample was diluted with a diluted solution and prepared at a concentration of 0.05–1 mg/mL.

[3] = Compatibility study API-excipient / API-API (total impurities by HPLC); format: physicochemical
Procedure: The column used was the Gemini C18 column (5.0 μm, 250 mm). […] The mobile phase was filtered through a 0.4 μm polypropylene membrane filter and degassed via sonication. […] The column and sample thermostats were set to 35 °C and 5 °C, respectively. […] The compatibility study was performed using appearance and impurity tests to confirm the interaction between each API and the excipient. Each API was mixed with mannitol, microcrystalline cellulose, lactose, silicified microcrystalline cellulose, calcium hydrogen phosphate anhydrous, pregelatinized starch, sodium starch glycolate, crospovidone, sodium croscarmellose, magnesium stearate, colloidal silicon dioxide, sodium stearyl fumarate, hydroxypropyl cellulose, calcium hydroxide, citric acid, and OPADRY II pink in a 1:1 (w/w) ratio and put into each clear glass vial.

[4] = oral; cited from earlier work
[5] = cited from earlier work

N[C@@H](CC(=O)N1CCn2c(nnc2C(F)(F)F)C1)Cc1cc(F)c(F)cc1F.O.O=P(O)(O)O [Sitagliptin, (R)-3-Amino-1-(3-(trifluoromethyl)-5,6-dihydro-[1,2,4]triazolo[4,3-a]pyrazin-7(8H)-yl)-4-(2,4,5-trifluorophenyl)butan-1-one phosphate monohydrate]
solubility thermodynamic at 12 h ([1]; pH 1.2, aqueous buffer): 1940 µg/mL
solubility thermodynamic at 24 h ([1]; pH 1.2, aqueous buffer): 1940 µg/mL
solubility thermodynamic at 12 h ([1]; pH 2, aqueous buffer): 3110 µg/mL
solubility thermodynamic at 24 h ([1]; pH 2, aqueous buffer): 3110 µg/mL
solubility thermodynamic at 12 h ([1]; pH 3, aqueous buffer): 1700 µg/mL
solubility thermodynamic at 24 h ([1]; pH 3, aqueous buffer): 1700 µg/mL
solubility thermodynamic at 12 h ([1]; pH 4, aqueous buffer): 1610 µg/mL
solubility thermodynamic at 24 h ([1]; pH 4, aqueous buffer): 1610 µg/mL
solubility thermodynamic at 12 h ([1]; pH 5, aqueous buffer): 1510 µg/mL
solubility thermodynamic at 24 h ([1]; pH 5, aqueous buffer): 1520 µg/mL
solubility thermodynamic at 12 h ([1]; pH 6, aqueous buffer): 1160 µg/mL
solubility thermodynamic at 24 h ([1]; pH 6, aqueous buffer): 1160 µg/mL
solubility thermodynamic at 12 h ([1]; pH 6.8, aqueous buffer): 2670 µg/mL
solubility thermodynamic at 12 h ([1]; pH 7, aqueous buffer): 2760 µg/mL
solubility thermodynamic at 24 h ([1]; pH 7, aqueous buffer): 2760 µg/mL
solubility thermodynamic at 12 h ([1]; pH 8, aqueous buffer): 1420 µg/mL
solubility thermodynamic at 24 h ([1]; pH 8, aqueous buffer): 1430 µg/mL
solubility thermodynamic at 12 h ([1]; pH 9, aqueous buffer): 1500 µg/mL
solubility thermodynamic at 24 h ([1]; pH 9, aqueous buffer): 1500 µg/mL
solubility thermodynamic at 12 h ([1]; pH 10, aqueous buffer): 960 µg/mL
solubility thermodynamic at 24 h ([1]; pH 10, aqueous buffer): 970 µg/mL
solubility thermodynamic at 12 h ([1]; pH 11, aqueous buffer): 1440 µg/mL
solubility thermodynamic at 24 h ([1]; pH 11, aqueous buffer): 1440 µg/mL
solubility thermodynamic at 12 h ([1]; pH 12, aqueous buffer): 1610 µg/mL
solubility thermodynamic at 24 h ([1]; pH 12, aqueous buffer): 1600 µg/mL
solubility thermodynamic at 12 h ([1]; water): 1420 µg/mL
solubility thermodynamic at 24 h ([1]; water): 1420 µg/mL
Total Impurity ([2]; pH 1.2 buffer, 20 ± 2 °C/60 ± 5% RH, 3 Days): 0.01%
Total Impurity ([2]; pH 1.2 buffer, 20 ± 2 °C/60 ± 5% RH, 7 Days): 0.09%
Total Impurity ([2]; pH 1.2 buffer, 40 ± 2 °C/75 ± 5% RH, 3 Days): 0.02%
Total Impurity ([2]; pH 1.2 buffer, 40 ± 2 °C/75 ± 5% RH, 7 Days): 0.14%
Total Impurity ([2]; pH 1.2 buffer, Initial): 0.02%
Total Impurity ([2]; pH 2.0 buffer, 20 ± 2 °C/60 ± 5% RH, 3 Days): 0.03%
Total Impurity ([2]; pH 2.0 buffer, 20 ± 2 °C/60 ± 5% RH, 7 Days): 0.23%
Total Impurity ([2]; pH 2.0 buffer, 40 ± 2 °C/75 ± 5% RH, 3 Days): 0.08%
Total Impurity ([2]; pH 2.0 buffer, 40 ± 2 °C/75 ± 5% RH, 7 Days): 0.59%
Total Impurity ([2]; pH 2.0 buffer, Initial): 0.02%
Total Impurity ([2]; pH 3.0 buffer, 20 ± 2 °C/60 ± 5% RH, 3 Days): 0.08%
Total Impurity ([2]; pH 3.0 buffer, 20 ± 2 °C/60 ± 5% RH, 7 Days): 1.42%
Total Impurity ([2]; pH 3.0 buffer, 40 ± 2 °C/75 ± 5% RH, 3 Days): 0.37%
Total Impurity ([2]; pH 3.0 buffer, 40 ± 2 °C/75 ± 5% RH, 7 Days): 5.64%
Total Impurity ([2]; pH 3.0 buffer, Initial): 0.08%
Total Impurity ([2]; pH 4.0 buffer, 20 ± 2 °C/60 ± 5% RH, 3 Days): 0.00%
Total Impurity ([2]; pH 4.0 buffer, 20 ± 2 °C/60 ± 5% RH, 7 Days): 0.01%
Total Impurity ([2]; pH 4.0 buffer, 40 ± 2 °C/75 ± 5% RH, 3 Days): 0.00%
Total Impurity ([2]; pH 4.0 buffer, 40 ± 2 °C/75 ± 5% RH, 7 Days): 0.02%
Total Impurity ([2]; pH 4.0 buffer, Initial): 0.02%
Total Impurity ([2]; pH 5.0 buffer, 20 ± 2 °C/60 ± 5% RH, 3 Days): 0.00%
Total Impurity ([2]; pH 5.0 buffer, 20 ± 2 °C/60 ± 5% RH, 7 Days): 0.03%
Total Impurity ([2]; pH 5.0 buffer, 40 ± 2 °C/75 ± 5% RH, 3 Days): 0.00%
Total Impurity ([2]; pH 5.0 buffer, 40 ± 2 °C/75 ± 5% RH, 7 Days): 0.03%
Total Impurity ([2]; pH 5.0 buffer, Initial): 0.03%
Total Impurity ([2]; pH 6.0 buffer, 20 ± 2 °C/60 ± 5% RH, 3 Days): 0.00%
Total Impurity ([2]; pH 6.0 buffer, 20 ± 2 °C/60 ± 5% RH, 7 Days): 0.03%
Total Impurity ([2]; pH 6.0 buffer, 40 ± 2 °C/75 ± 5% RH, 3 Days): 0.01%
Total Impurity ([2]; pH 6.0 buffer, 40 ± 2 °C/75 ± 5% RH, 7 Days): 0.06%
Total Impurity ([2]; pH 6.0 buffer, Initial): 0.05%
Total Impurity ([2]; pH 6.8 buffer, 20 ± 2 °C/60 ± 5% RH, 3 Days): 0.01%
Total Impurity ([2]; pH 6.8 buffer, 20 ± 2 °C/60 ± 5% RH, 7 Days): 0.06%
Total Impurity ([2]; pH 6.8 buffer, 40 ± 2 °C/75 ± 5% RH, 3 Days): 0.00%
Total Impurity ([2]; pH 6.8 buffer, 40 ± 2 °C/75 ± 5% RH, 7 Days): 0.03%
Total Impurity ([2]; pH 6.8 buffer, Initial): 0.04%
Total Impurity ([2]; pH 7.0 buffer, 20 ± 2 °C/60 ± 5% RH, 3 Days): 0.00%
Total Impurity ([2]; pH 7.0 buffer, 20 ± 2 °C/60 ± 5% RH, 7 Days): 0.03%
Total Impurity ([2]; pH 7.0 buffer, 40 ± 2 °C/75 ± 5% RH, 3 Days): 0.00%
Total Impurity ([2]; pH 7.0 buffer, 40 ± 2 °C/75 ± 5% RH, 7 Days): 0.03%
Total Impurity ([2]; pH 7.0 buffer, Initial): 0.00%
Total Impurity ([2]; pH 8.0 buffer, 20 ± 2 °C/60 ± 5% RH, 3 Days): 0.01%
Total Impurity ([2]; pH 8.0 buffer, 20 ± 2 °C/60 ± 5% RH, 7 Days): 0.03%
Total Impurity ([2]; pH 8.0 buffer, 40 ± 2 °C/75 ± 5% RH, 3 Days): 0.00%
Total Impurity ([2]; pH 8.0 buffer, 40 ± 2 °C/75 ± 5% RH, 7 Days): 0.03%
Total Impurity ([2]; pH 8.0 buffer, Initial): 0.06%
Total Impurity ([2]; pH 9.0 buffer, 20 ± 2 °C/60 ± 5% RH, 3 Days): 0.00%
Total Impurity ([2]; pH 9.0 buffer, 20 ± 2 °C/60 ± 5% RH, 7 Days): 0.00%
Total Impurity ([2]; pH 9.0 buffer, 40 ± 2 °C/75 ± 5% RH, 3 Days): 0.00%
Total Impurity ([2]; pH 9.0 buffer, 40 ± 2 °C/75 ± 5% RH, 7 Days): 0.03%
Total Impurity ([2]; pH 9.0 buffer, Initial): 0.00%
Total Impurity ([2]; pH 10.0 buffer, 20 ± 2 °C/60 ± 5% RH, 3 Days): 0.00%
Total Impurity ([2]; pH 10.0 buffer, 20 ± 2 °C/60 ± 5% RH, 7 Days): 0.03%
Total Impurity ([2]; pH 10.0 buffer, 40 ± 2 °C/75 ± 5% RH, 3 Days): 0.00%
Total Impurity ([2]; pH 10.0 buffer, 40 ± 2 °C/75 ± 5% RH, 7 Days): 0.03%
Total Impurity ([2]; pH 10.0 buffer, Initial): 0.02%
Total Impurity ([2]; pH 11.0 buffer, 20 ± 2 °C/60 ± 5% RH, 3 Days): 0.00%
Total Impurity ([2]; pH 11.0 buffer, 20 ± 2 °C/60 ± 5% RH, 7 Days): 0.03%
Total Impurity ([2]; pH 11.0 buffer, 40 ± 2 °C/75 ± 5% RH, 3 Days): 0.00%
Total Impurity ([2]; pH 11.0 buffer, 40 ± 2 °C/75 ± 5% RH, 7 Days): 0.04%
Total Impurity ([2]; pH 11.0 buffer, Initial): 0.04%
Total Impurity ([2]; pH 12.0 buffer, 20 ± 2 °C/60 ± 5% RH, 3 Days): 0.00%
Total Impurity ([2]; pH 12.0 buffer, 20 ± 2 °C/60 ± 5% RH, 7 Days): 0.03%
Total Impurity ([2]; pH 12.0 buffer, 40 ± 2 °C/75 ± 5% RH, 3 Days): 0.00%
Total Impurity ([2]; pH 12.0 buffer, 40 ± 2 °C/75 ± 5% RH, 7 Days): 0.03%
Total Impurity ([2]; pH 12.0 buffer, Initial): 0.03%
Total Impurities ([3]; 20 ± 2 °C/60 ± 5% RH, 2 Weeks): 0.00%
Total Impurities ([3]; 20 ± 2 °C/60 ± 5% RH, 4 Weeks): 0.00%
Total Impurities ([3]; 40 ± 2 °C/75 ± 5% RH, 2 Weeks): 0.00%
Total Impurities ([3]; 40 ± 2 °C/75 ± 5% RH, 4 Weeks): 0.00%
Total Impurities ([3]; Initial): 0.00%
bioavailability [4]: approximately 87%
biopharmaceutics classification system (BCS) [5]: Class 1

From paper PMC10141516 (Pharmaceutics, 2023)
